Laboratory results published in article PMC8746705, “Comparison of Experimental Strategies to Study L-Type Amino Acid Transporter 1 (LAT1) Utilization by Ligands” (Molecules, 2021).
Values belong to the compound of their own block, whether it stands above or below them.

Assays:
[1] = Stability / bioconversion of prodrugs to parent drugs (biological media, 0.1 M NaOH cell lysing); type: in vitro ADME; settings: cell lysate samples for LC-MS/MS (Table S1 footnote)
Text: LAT1-utilizing prodrugs 1–15 (Figure 1) were selected for this study based on their ability to utilize LAT1 expressed in cells used in our previous studies. Therefore, the syntheses of these compounds are not described herein as they have been reported earlier. These compounds include prodrugs of an investigational immunosuppressive agent, perforin inhibitor (1), non-steroidal anti-inflammatory drugs (NSAIDs), ketoprofen (2–4, 14), salicylic acid (8), flurbiprofen (9 and 12), ibuprofen (10 and 13) and naproxen (11 and 15), as well as the polyphenolic antioxidant, ferulic acid (5–7). […] In addition, all NSAID prodrugs (compounds 2–4, 9–15) were prepared from their pure S-enantiomers. Prodrugs of ferulic acid (compounds 5–7) were mixtures of E- and […], which were interconvertible over time. […] Therefore, both prodrug and the released parent drug proportions were quantified and taken into account when calculating concentrations transported into the cells.
1. LC-MS/MS ionization parameters of compounds 1-15
Table S1. Ionization parameters for the LC-MS/MS methods of the studied compounds.
Precursor Product Fragmentor Collision Flow rate Gradient LLOQ
Compound ion ion(s) Voltage (V) Energy (mL/min) (A:B) (nM) […]
perforin inhibitor 1a and therefore, their transitions with a positive ion mode are reported only as KPF or as a prodrug and parent drug in parentheses. […]
drugs (ferulic acid (FA), flurbiprofen (FLB), ibuprofen (IBU), and naproxen (NPX), respectively), whose transitions with a negative ion mode are reported below the studied LAT1 -utilizing compounds i n parentheses.

LAT1 [2] = target: T1, LAT1 (Mus musculus, UniProt Q9Z127); set-up: method as in earlier work; settings: BV2 cells; probe [14C]-L-Leu; mean ± SD; published earlier; ref [31] or [33]; read-out: IC50 of [14C]-L-Leu uptake; cited from earlier work
[3] = tested on: brain amino acids L-Leu, L-Trp, L-Tyr and L-Tyr metabolites; test: Brain amino acid homeostasis after i.p. dose to mice; type: in vivo; settings: mouse brain, single i.p. dose 25 µmol/kg; for Brain 3,4-dihydroxyphenylacetic acid levels: compound 2: 2 and 4 h compared to first time point (10 min)
Procedure: Adult male mice weighing 25 ± 5 g were supplied by Envigo (Venray, Netherlands). Mice were housed in stainless steel cages on a 12 h light (07:00–19:00) and 12 h dark (19:00–07:00) cycle at an ambient temperature of 22 ± 1 °C with a relative humidity of 50–60%. All experiments were carried out during the light phase. Tap water and food pellets (Lactamin R36; Lactamin AB, Södertälje, Sweden) were available ad libitum. A dose of 25 µmol/kg of compound 1, 2, or 8–11 was given as a bolus injection (i.p.) to mice. The mice were decapitated at selected time points between (10–360 min) and brain tissues were collected for sample preparation to be analyzed by liquid chromatography-mass spectrometric (LC-MS/MS) analysis.
Brain samples were prepared similarly as described above by homogenizing the pre-weigh tissues with ultrapure water (1:3). Subsequently, 100 µL of the homogenates was taken, and the proteins were precipitated with 300 µL of ACN containing the internal standard (labetalol).
Samples were vortexed and centrifuged at 10,000× g at 4 °C for 10 min. 200 µL of supernatant was mixed with 100 µL of ultrapure water and injected to LC-MS/MS equipment described above. The amounts of three known LAT1-utilizing amino acids, L-Leu, L-Tyr, and L-Trp, and two L-Tyr metabolites, namely p-hydroxyphenylacetate and 3,4-dihydroxyphenylacetic acid, were quantified with a method described earlier. […] Data were acquired using the Agilent MassHunter Workstation Acquisition software (Data Acquisition for Triple Quadrupole Mass Spectrometer, version B.03.01) and processed and analyzed with Quantitative Analysis (B.04.00) software. The lower limit of quantification (LLOQ) for the amino acids in tissue samples was 0.1 nM for L-Leu, L-Tyr, and L-Trp and 1 nM for p-hydroxyphenylacetate and 3,4-dihydroxyphenylacetic acid. […] The concentrations of the amino acids and their metabolites were calculated from the standard curve that was prepared by spiking known amounts of compounds to ACN including the selected internal standard.

LAT1 [4] = target: T1, LAT1; test: Cellular uptake of L-leucine after pre-incubation of BV2 cells with the compounds; type: cell-based; settings: 100 µM (L-glutamine 2 mM) pre-incubated 10 min or 3 h, L-leucine 1–400 µM, 5 min
Procedure: The ability of compounds 1–15 to affect the uptake of a known LAT1 substrate L-leucine was evaluated by pre-incubating the BV2 cells at 37 °C for 10 min or 3 h with uptake buffer pH 7.4 (250 μL) containing 100 µM of compounds 1–15 or thyroxin (T4), or known nuclear receptor inducible compounds, phenobarbital (constitutive androstane receptor, CAR), and dexamethasone (pregnane X receptor, PXR) as controls. […] After incubation, the reaction was stopped by adding 250 µL of ice-cold HBSS, and the cells were washed two times with ice-cold HBSS. The cells were then lysed with 500 μL of 0.1 M NaOH (60 min) and the lysate was mixed with 3.5 mL of Emulsifier safe cocktail (Ultima Gold, PerkinElmer, Waltham, MA, USA). The radioactivity in the cells was measured by liquid scintillation counting (MicroBeta^2 counter, PerkinElmer Waltham, MA, USA). The results were multiplied by the amount of un-labeled proportion of L-leucine in each sample.

T1 sequence (Q9Z127 whole entry): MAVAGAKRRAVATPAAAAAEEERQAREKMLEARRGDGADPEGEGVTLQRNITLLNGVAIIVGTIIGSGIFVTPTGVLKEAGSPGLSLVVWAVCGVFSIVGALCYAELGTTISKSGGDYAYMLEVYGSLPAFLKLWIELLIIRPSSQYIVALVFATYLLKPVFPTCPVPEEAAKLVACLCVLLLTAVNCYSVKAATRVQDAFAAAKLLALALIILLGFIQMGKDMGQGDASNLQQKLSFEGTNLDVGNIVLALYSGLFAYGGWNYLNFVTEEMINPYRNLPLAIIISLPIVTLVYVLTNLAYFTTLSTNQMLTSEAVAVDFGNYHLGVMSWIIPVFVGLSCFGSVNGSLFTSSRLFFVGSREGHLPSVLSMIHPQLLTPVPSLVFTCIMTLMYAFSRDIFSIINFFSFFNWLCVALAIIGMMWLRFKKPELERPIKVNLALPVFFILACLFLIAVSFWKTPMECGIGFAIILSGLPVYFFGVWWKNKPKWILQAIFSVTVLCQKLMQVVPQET
T1 sequence (P10852 whole entry partner): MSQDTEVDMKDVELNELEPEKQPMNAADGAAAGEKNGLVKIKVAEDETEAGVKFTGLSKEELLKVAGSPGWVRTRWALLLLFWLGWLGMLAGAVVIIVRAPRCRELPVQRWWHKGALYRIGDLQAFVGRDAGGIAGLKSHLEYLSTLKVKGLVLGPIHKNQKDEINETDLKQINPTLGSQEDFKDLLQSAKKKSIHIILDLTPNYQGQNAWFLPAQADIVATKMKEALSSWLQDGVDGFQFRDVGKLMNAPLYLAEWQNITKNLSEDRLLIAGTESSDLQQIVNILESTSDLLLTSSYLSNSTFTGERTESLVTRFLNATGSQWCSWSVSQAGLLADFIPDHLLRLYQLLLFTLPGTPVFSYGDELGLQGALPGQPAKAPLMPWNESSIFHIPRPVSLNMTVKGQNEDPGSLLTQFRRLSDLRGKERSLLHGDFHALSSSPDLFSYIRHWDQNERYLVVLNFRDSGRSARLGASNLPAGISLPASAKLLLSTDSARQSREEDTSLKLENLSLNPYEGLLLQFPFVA

Conversion to parent drug in the analysed samples [1]: fully converted into ketoprofen
SMILES: C[C@H](C(=O)Oc1cccc(C[C@H](N)C(=O)O)c1)c1cccc(C(=O)c2ccccc2)c1 [Compound 4]

Conversion to parent drug in the analysed samples [1]: partly converted to their parent
SMILES: C[C@H](C(=O)Oc1cccc(C[C@H](N)C(=O)O)c1)c1ccc(-c2ccccc2)c(F)c1 [Compound 12]
IC50 (LAT1 [2]): 4.2 ± 1.2 µM

SMILES: COc1cc(/C=C/C(=O)Oc2cccc(C[C@H](N)C(=O)O)c2)ccc1O [Compound 7]
Conversion to parent drug in the analysed samples [1]: partly converted to their parent

Conversion to parent drug in the analysed samples [1]: partly converted to their parent
SMILES: COc1ccc2cc([C@H](C)C(=O)Oc3cccc(C[C@H](N)C(=O)O)c3)ccc2c1 [Compound 15]

Brain p-hydroxyphenylacetate levels ([3]; after 30 min of the bolus injection compared to other time points): significantly lower | Conversion to parent drug in the analysed samples [1]: partly
SMILES: NC(Cc1cccc(C(=O)Oc2ccc(-c3ccc(-c4ccc5c(c4)COC5=O)s3)cc2)c1)C(=O)O (stereo not drawn) [Compound 1]

Effect on cellular uptake of L-Leu after pre-incubation (LAT1 [4]): induced the uptake of L-Leu
SMILES: COc1cc(C=CC(=O)NCc2cccc(CC(N)C(=O)O)c2)ccc1O (stereo not drawn) [Compound 5]

Brain 3,4-dihydroxyphenylacetic acid levels [3]: Not detected at all
SMILES: N[C@@H](Cc1cccc(NC(=O)c2ccccc2O)c1)C(=O)O [Compound 8]
IC50 (LAT1 [2]): 18.9 ± 1.6 µM

Brain 3,4-dihydroxyphenylacetic acid levels [3]: significant reduction | Effect on cellular uptake of L-Leu after pre-incubation (LAT1 [4]): induced the uptake of L-Leu
SMILES: C[C@H](C(=O)Nc1cccc(C[C@H](N)C(=O)O)c1)c1cccc(C(=O)c2ccccc2)c1 [Compound 2]
